According to publication PMC5218480 (PLoS ONE, 2017):

Test system: MV-4-11 cells
Test: Gene expression microarray analysis (Affymetrix PrimeView) and GSEA
Type: cell-based, human
Set-up: RFU PODN (11730768_x_at) / Fold change /veh PODN (11730768_x_at) / RFU LINC00158 (11744669_a_at) / Fold change /veh LINC00158 (11744669_a_at) / RFU DUSP10 (11751237_a_at) / Fold change /veh DUSP10 (11751237_a_at) / RFU ID3 (11757404_x_at) / Fold change /veh ID3 (11757404_x_at) / RFU PLEKHG5 (11737974_s_at) / Fold change /veh PLEKHG5 (11737974_s_at) / RFU LRRC4B (11730491_at) / Fold change /veh LRRC4B (11730491_at) / RFU GIMAP4 (11747438_a_at) / Fold change /veh GIMAP4 (11747438_a_at) / RFU KRT8 (11758183_x_at) / Fold change /veh KRT8 (11758183_x_at) / RFU CNN1 (11734310_a_at) / Fold change /veh CNN1 (11734310_a_at) / RFU VPS37D (11726825_at) / Fold change /veh VPS37D (11726825_at) / RFU C10orf10 (11716522_x_at) / Fold change /veh C10orf10 (11716522_x_at) / RFU KIR2DL2 /// KIR2DL4 /// KIR2DL5A /// KIR2DL5B /// KIR2DS1 /// KIR2DS2 /// KIR2DS3 /// KIR2DS4 /// KIR3DL3 /// KIR3DL3 /// KIR3DS1 (11738374_at) / Fold change /veh KIR2DL2 /// KIR2DL4 /// KIR2DL5A /// KIR2DL5B /// KIR2DS1 /// KIR2DS2 /// KIR2DS3 /// KIR2DS4 /// KIR3DL3 /// KIR3DL3 /// KIR3DS1 (11738374_at) / RFU C1QL1 (11718748_at) / Fold change /veh C1QL1 (11718748_at) / RFU TMPRSS4 (11747572_a_at) / Fold change /veh TMPRSS4 (11747572_a_at) / RFU HAMP (11756126_x_at) / Fold change /veh HAMP (11756126_x_at) / RFU RNFT2 (11725882_a_at) / Fold change /veh RNFT2 (11725882_a_at) / RFU NR4A2 (11747474_a_at) / Fold change /veh NR4A2 (11747474_a_at) / RFU ABCC12 (11746883_a_at) / Fold change /veh ABCC12 (11746883_a_at) / RFU TMEM136 (11760407_x_at) / Fold change /veh TMEM136 (11760407_x_at) / RFU CLDN22 /// WWC2 (11732394_at) / Fold change /veh CLDN22 /// WWC2 (11732394_at) / RFU HLA-DPB1 (11760878_x_at) / Fold change /veh HLA-DPB1 (11760878_x_at) / RFU SPINT1 (11716480_a_at) / Fold change /veh SPINT1 (11716480_a_at) / RFU GAP43 (11754022_s_at) / Fold change /veh GAP43 (11754022_s_at) / RFU A4GNT (11735810_at) / Fold change /veh A4GNT (11735810_at) / RFU PRB3 (11715151_x_at) / Fold change /veh PRB3 (11715151_x_at) / RFU TUBB4B (11761932_at) / Fold change /veh TUBB4B (11761932_at) / RFU CAPN14 (11732068_a_at) / Fold change /veh CAPN14 (11732068_a_at) / RFU TMCC2 (11721928_a_at) / Fold change /veh TMCC2 (11721928_a_at) / RFU IRGQ (11745062_a_at) / Fold change /veh IRGQ (11745062_a_at) / RFU FAM174B (11720279_a_at) / Fold change /veh FAM174B (11720279_a_at) / RFU TMPRSS4 (11748680_a_at) / Fold change /veh TMPRSS4 (11748680_a_at) / RFU FAM212B (11763350_a_at) / Fold change /veh FAM212B (11763350_a_at) / RFU PLEKHG5 (11743358_a_at) / Fold change /veh PLEKHG5 (11743358_a_at) / RFU ZSCAN30 (11745921_a_at) / Fold change /veh ZSCAN30 (11745921_a_at) / RFU CMKLR1 (11741424_a_at) / Fold change /veh CMKLR1 (11741424_a_at) / RFU LOC101060620 /// MAPK8IP1 (11723275_at) / Fold change /veh LOC101060620 /// MAPK8IP1 (11723275_at) / RFU SPTSSB (11747773_x_at) / Fold change /veh SPTSSB (11747773_x_at) / RFU PRSS12 (11739890_at) / Fold change /veh PRSS12 (11739890_at) / RFU BIN1 (11741810_x_at) / Fold change /veh BIN1 (11741810_x_at) / RFU WNT11 (11732464_a_at) / Fold change /veh WNT11 (11732464_a_at) / RFU C10orf10 (11716521_a_at) / Fold change /veh C10orf10 (11716521_a_at) / RFU C5orf56 (11738089_at) / Fold change /veh C5orf56 (11738089_at) / RFU CYB561 (11721691_x_at) / Fold change /veh CYB561 (11721691_x_at) / RFU ANKRD19P (11752326_a_at) / Fold change /veh ANKRD19P (11752326_a_at) / RFU OR2T12 /// OR2T33 /// OR2T8 (11738714_s_at) / Fold change /veh OR2T12 /// OR2T33 /// OR2T8 (11738714_s_at) / RFU VCAN (11748164_a_at) / Fold change /veh VCAN (11748164_a_at) / RFU JSRP1 (11732532_at) / Fold change /veh JSRP1 (11732532_at) / RFU KRTAP10-11 (11738290_x_at) / Fold change /veh KRTAP10-11 (11738290_x_at) / RFU MYO3A (11730013_a_at) / Fold change /veh MYO3A (11730013_a_at) / RFU EBF3 (11725865_a_at) / Fold change /veh EBF3 (11725865_a_at) / RFU CAMK2N1 (11719241_x_at) / Fold change /veh CAMK2N1 (11719241_x_at) / RFU C5orf56 (11738088_a_at) / Fold change /veh C5orf56 (11738088_a_at) / RFU OLFML3 (11715873_a_at) / Fold change /veh OLFML3 (11715873_a_at) / RFU LOC100653217 /// NTM (11731650_a_at) / Fold change /veh LOC100653217 /// NTM (11731650_a_at) / RFU MAPK11 (11762145_a_at) / Fold change /veh MAPK11 (11762145_a_at) / RFU FIZ1 (11724087_x_at) / Fold change /veh FIZ1 (11724087_x_at) / RFU OASL (11726364_x_at) / Fold change /veh OASL (11726364_x_at) / RFU SOX15 (11748057_x_at) / Fold change /veh SOX15 (11748057_x_at) / RFU CD79A (11719716_a_at) / Fold change /veh CD79A (11719716_a_at) / RFU HIST1H1D (11736915_at) / Fold change /veh HIST1H1D (11736915_at) / RFU CASKIN2 (11723855_a_at) / Fold change /veh CASKIN2 (11723855_a_at) / RFU LOC730098 (11760151_x_at) / Fold change /veh LOC730098 (11760151_x_at) / RFU OR4N2 (11742367_at) / Fold change /veh OR4N2 (11742367_at) / RFU PRRT2 (11749266_a_at) / Fold change /veh PRRT2 (11749266_a_at) / RFU SNX32 (11753110_a_at) / Fold change /veh SNX32 (11753110_a_at) / RFU CDHR5 (11726645_a_at) / Fold change /veh CDHR5 (11726645_a_at) / RFU RCAN1 (11760418_a_at) / Fold change /veh RCAN1 (11760418_a_at) / RFU FAM167A (11723789_a_at) / Fold change /veh FAM167A (11723789_a_at) / RFU FAM26E (11764081_at) / Fold change /veh FAM26E (11764081_at) / RFU ISYNA1 (11749810_s_at) / Fold change /veh ISYNA1 (11749810_s_at) / RFU ACY1 (11761880_at) / Fold change /veh ACY1 (11761880_at) / RFU 11764098_at / Fold change /veh 11764098_at / RFU SAMD14 (11745864_x_at) / Fold change /veh SAMD14 (11745864_x_at) / RFU NPB (11741838_a_at) / Fold change /veh NPB (11741838_a_at) / RFU TMPRSS6 (11731388_a_at) / Fold change /veh TMPRSS6 (11731388_a_at) / RFU KRTAP10-2 (11738614_at) / Fold change /veh KRTAP10-2 (11738614_at) / RFU ARHGAP8 /// PRR5-ARHGAP8 (11727945_x_at) / Fold change /veh ARHGAP8 /// PRR5-ARHGAP8 (11727945_x_at) / RFU KRTAP5-7 /// NADSYN1 (11734609_at) / Fold change /veh KRTAP5-7 /// NADSYN1 (11734609_at) / RFU RASL12 (11751679_a_at) / Fold change /veh RASL12 (11751679_a_at) / RFU CDKN2B (11736163_a_at) / Fold change /veh CDKN2B (11736163_a_at) / RFU PRF1 (11729649_at) / Fold change /veh PRF1 (11729649_at) / RFU, ZNF638 /// ZNF638-IT1 / Fold change vs veh, ZNF638 /// ZNF638-IT1 / RFU, PANK3 / Fold change vs veh, PANK3 / RFU, SH3YL1 / Fold change vs veh, SH3YL1 / RFU, ZEB2 / Fold change vs veh, ZEB2 / RFU, NRIP1 / Fold change vs veh, NRIP1 / RFU, PTTG1IP / Fold change vs veh, PTTG1IP / RFU, CAPN2 / Fold change vs veh, CAPN2 / RFU, MED14 / Fold change vs veh, MED14 / RFU, SNORA58 / Fold change vs veh, SNORA58 / RFU, C1orf63 / Fold change vs veh, C1orf63 / RFU, LRRFIP1 / Fold change vs veh, LRRFIP1 / RFU, NDUFAF7 / Fold change vs veh, NDUFAF7 / RFU, SLC12A2 / Fold change vs veh, SLC12A2 / RFU, IBTK / Fold change vs veh, IBTK / RFU, ESF1 / Fold change vs veh, ESF1 / Fold change vs veh, TMEM50B / RFU, TAOK1 / Fold change vs veh, TAOK1 / RFU, ACBD3 / Fold change vs veh, ACBD3 / RFU, TMA16 / Fold change vs veh, TMA16 / RFU, RWDD3 / Fold change vs veh, RWDD3 / RFU, BCAT1 / Fold change vs veh, BCAT1 / RFU, EDEM3 / Fold change vs veh, EDEM3 / RFU, TMEM33 / Fold change vs veh, TMEM33 / RFU, WDR75 / Fold change vs veh, WDR75 / RFU, AHCTF1 / Fold change vs veh, AHCTF1 / RFU, TFRC / Fold change vs veh, TFRC / RFU, ZDHHC17 / Fold change vs veh, ZDHHC17 / RFU, NOM1 / Fold change vs veh, NOM1 / RFU, ARL8B / Fold change vs veh, ARL8B / RFU, ZBTB11 / Fold change vs veh, ZBTB11 / RFU, TAMM41 / Fold change vs veh, TAMM41 / RFU, KIAA1704 /// LOC100996395 / Fold change vs veh, KIAA1704 /// LOC100996395 / RFU, ING1 / Fold change vs veh, ING1 / RFU, TRMT61B / Fold change vs veh, TRMT61B / RFU, FUBP3 / Fold change vs veh, FUBP3 / RFU, TP53 / Fold change vs veh, TP53 / RFU, TNKS2 / Fold change vs veh, TNKS2 / RFU, ZFP14 / Fold change vs veh, ZFP14 / RFU, ACTR2 / Fold change vs veh, ACTR2 / RFU, PPP3R1 / Fold change vs veh, PPP3R1 / RFU, PIK3R1 / Fold change vs veh, PIK3R1 / RFU, HNRNPA1 / Fold change vs veh, HNRNPA1 / RFU, RNF170 / Fold change vs veh, RNF170 / RFU, ZNF28 / Fold change vs veh, ZNF28 / RFU, RNGTT / Fold change vs veh, RNGTT / RFU, OGT / Fold change vs veh, OGT / RFU, BRD1 / Fold change vs veh, BRD1 / RFU, MARS / Fold change vs veh, MARS / RFU, ZNF655 / Fold change vs veh, ZNF655 / RFU, FAHD1 / Fold change vs veh, FAHD1 / RFU, BDP1 / Fold change vs veh, BDP1 / RFU, LRRCC1 / Fold change vs veh, LRRCC1 / RFU, ARID1A / Fold change vs veh, ARID1A / RFU, ZNF146 / Fold change vs veh, ZNF146 / RFU, ZNF330 / Fold change vs veh, ZNF330 / RFU, GPN3 / Fold change vs veh, GPN3 / RFU, C9orf123 / Fold change vs veh, C9orf123 / RFU, N4BP2L2 / Fold change vs veh, N4BP2L2 / RFU, ARFIP1 / Fold change vs veh, ARFIP1 / RFU, FAM179B / Fold change vs veh, FAM179B / RFU, BCL10 / Fold change vs veh, BCL10 / RFU, UHRF1BP1L / Fold change vs veh, UHRF1BP1L / RFU, BET1 / Fold change vs veh, BET1 / RFU, CNOT2 / Fold change vs veh, CNOT2 / RFU, ZNF268 / Fold change vs veh, ZNF268 / Fold change vs veh, ZNF507 / RFU, DGCR2 / Fold change vs veh, DGCR2 / RFU, WDSUB1 / Fold change vs veh, WDSUB1 / Fold change vs veh, HSP90B1 /// MIR3652 / RFU, ADSS / Fold change vs veh, ADSS / RFU, GK / Fold change vs veh, GK / RFU, ZNF148 / Fold change vs veh, ZNF148 / RFU, TAF9 / Fold change vs veh, TAF9 / RFU, SLC1A5 / Fold change vs veh, SLC1A5 / RFU, SLMO2 / Fold change vs veh, SLMO2 / RFU, ABCC4 / Fold change vs veh, ABCC4 / RFU, LOC101060439 /// RAP1B / Fold change vs veh, LOC101060439 /// RAP1B / RFU, RFX7 / Fold change vs veh, RFX7 / RFU, GTPBP10 / Fold change vs veh, GTPBP10 / RFU, CNEP1R1 / Fold change vs veh, CNEP1R1 / RFU, BIVM-ERCC5 /// ERCC5 / Fold change vs veh, BIVM-ERCC5 /// ERCC5 / RFU, ILF3 / Fold change vs veh, ILF3 / RFU 11762660_at / Fold change /veh 11762660_at / RFU VCAN (11757783_s_at) / Fold change /veh VCAN (11757783_s_at) / RFU DDX43 (11728927_at) / Fold change /veh DDX43 (11728927_at) / RFU KRT8 (11758188_x_at) / Fold change /veh KRT8 (11758188_x_at) / RFU NKD1 (11759106_at) / Fold change /veh NKD1 (11759106_at) / RFU SRD5A1 (11742802_a_at) / Fold change /veh SRD5A1 (11742802_a_at) / RFU TPSAB1 /// TPSB2 (11721975_s_at) / Fold change /veh TPSAB1 /// TPSB2 (11721975_s_at) / RFU GSTM3 (11746129_a_at) / Fold change /veh GSTM3 (11746129_a_at) / RFU IL23R (11737362_x_at) / Fold change /veh IL23R (11737362_x_at) / RFU TMEM51 (11727254_a_at) / Fold change /veh TMEM51 (11727254_a_at) / RFU PIWIL2 (11732686_x_at) / Fold change /veh PIWIL2 (11732686_x_at) / RFU ORM1 (11744905_x_at) / Fold change /veh ORM1 (11744905_x_at) / RFU CCDC152 (11743942_at) / Fold change /veh CCDC152 (11743942_at) / RFU ECM1 (11717891_a_at) / Fold change /veh ECM1 (11717891_a_at) / RFU IL23R (11748794_a_at) / Fold change /veh IL23R (11748794_a_at) / RFU TNFAIP8L3 (11732012_x_at) / Fold change /veh TNFAIP8L3 (11732012_x_at) / RFU MBOAT4 (11741988_at) / Fold change /veh MBOAT4 (11741988_at) / RFU 11764193_at / Fold change /veh 11764193_at / RFU TMEM53 (11763286_at) / Fold change /veh TMEM53 (11763286_at) / RFU MAGEB2 (11727129_at) / Fold change /veh MAGEB2 (11727129_at) / RFU TMEM200A (11744735_a_at) / Fold change /veh TMEM200A (11744735_a_at) / RFU CCDC152 (11751479_a_at) / Fold change /veh CCDC152 (11751479_a_at) / RFU FAM211A (11726209_a_at) / Fold change /veh FAM211A (11726209_a_at) / RFU RGS16 (11746705_a_at) / Fold change /veh RGS16 (11746705_a_at) / RFU VCAN (11755009_s_at) / Fold change /veh VCAN (11755009_s_at) / RFU RHOB (11743442_s_at) / Fold change /veh RHOB (11743442_s_at) / RFU RGS16 (11720943_a_at) / Fold change /veh RGS16 (11720943_a_at) / RFU RGS16 (11720944_at) / Fold change /veh RGS16 (11720944_at) / RFU, VPS4B / Fold change vs veh, VPS4B / RFU, CREB1 / Fold change vs veh, CREB1 / RFU, DNAJC13 / Fold change vs veh, DNAJC13 / RFU, GNAQ / Fold change vs veh, GNAQ / RFU, CDK5R1 / Fold change vs veh, CDK5R1 / RFU, ZRANB3 / Fold change vs veh, ZRANB3 / RFU, CUL4A / Fold change vs veh, CUL4A / RFU, CCNY / Fold change vs veh, CCNY / RFU, UFL1 / Fold change vs veh, UFL1 / RFU, COG3 / Fold change vs veh, COG3 / RFU, DIAPH2 / Fold change vs veh, DIAPH2 / RFU, SKA2 / Fold change vs veh, SKA2 / RFU, AFF3 / Fold change vs veh, AFF3 / RFU, LMF1 / Fold change vs veh, LMF1 / RFU, IPO11 / Fold change vs veh, IPO11 / RFU, DFFB / Fold change vs veh, DFFB / RFU, FOXP1 / Fold change vs veh, FOXP1 / RFU, CARD8 / Fold change vs veh, CARD8 / RFU, STRN3 / Fold change vs veh, STRN3 / RFU, ADK / Fold change vs veh, ADK / RFU, RASSF2 / Fold change vs veh, RASSF2 / RFU, WIPF1 / Fold change vs veh, WIPF1 / RFU, LARP1B / Fold change vs veh, LARP1B / RFU, RASA1 / Fold change vs veh, RASA1 / RFU, RB1 / Fold change vs veh, RB1 / RFU, PPFIA1 / Fold change vs veh, PPFIA1 / RFU, MAT2A / Fold change vs veh, MAT2A / RFU, CCT5 / Fold change vs veh, CCT5 / RFU, WDR92 / Fold change vs veh, WDR92 / RFU, CUX1 / Fold change vs veh, CUX1 / RFU, TTC7A / Fold change vs veh, TTC7A / RFU, TMEM135 / Fold change vs veh, TMEM135 / RFU, DEPTOR / Fold change vs veh, DEPTOR / RFU, CPM / Fold change vs veh, CPM / RFU, DNAJB6 / Fold change vs veh, DNAJB6 / RFU, CACNA2D3 / Fold change vs veh, CACNA2D3 / RFU, DTX4 / Fold change vs veh, DTX4 / RFU, TFCP2 / Fold change vs veh, TFCP2 / RFU, GMCL1 /// GMCL1P1 / Fold change vs veh, GMCL1 /// GMCL1P1 / RFU, AEBP2 / Fold change vs veh, AEBP2 / RFU, SNHG1 /// SNORD22 /// SNORD25 /// SNORD26 /// SNORD27 /// SNORD28 /// SNORD29 /// SNORD31 / Fold change vs veh, SNHG1 /// SNORD22 /// SNORD25 /// SNORD26 /// SNORD27 /// SNORD28 /// SNORD29 /// SNORD31 / Fold change (Aza/veh), C12orf56 (ProbeSet 11735607_a_at) / Fold change (ACY-1035/veh), C12orf56 (ProbeSet 11735607_a_at) / Fold change (Aza/veh), FGFR1OP (ProbeSet 11751329_s_at) / Fold change (ACY-1035/veh), FGFR1OP (ProbeSet 11751329_s_at) / Fold change (Aza/veh), VPS36 (ProbeSet 11739960_a_at) / Fold change (ACY-1035/veh), VPS36 (ProbeSet 11739960_a_at) / RFU SYPL1 (11715823_x_at) / Fold change /veh SYPL1 (11715823_x_at) / RFU IGFBP7 (11715501_s_at) / Fold change /veh IGFBP7 (11715501_s_at) / RFU REEP3 (11722064_at) / Fold change /veh REEP3 (11722064_at) / RFU IGLL1 (11728026_x_at) / Fold change /veh IGLL1 (11728026_x_at): dose or concentration left out as unconfirmed
Settings: ProbeSet 11720270_a_at; LIST B

Nc1ccc(-c2cccs2)cc1NC(=O)c1ccc2c(c1)cc(C1CC1)n2CCN1CCOCC1 [ACY-1035]
RFU, IBTK: 373.26 RFU
